Counter-ions that a name gives are not always drawn. Marks after values point to notes of the source that are not given here.
What was measured:
[1] = cited from earlier work
[2] = Doxorubicin remote loading encapsulation efficiency and short stability; format: physicochemical; details: for Encapsulation % (T0): doxorubicin
Protocol: In this stage the efficiency of remote loading encapsulation and encapsulation stability were studied. Liposomes were prepared as described above. […] All formulations were made from HSPC:Cholesterol:PEG-DSPE mole ratio of 54.5:41:4.5, briefly the lipids were hydrated and suspended in the various ammonium ions to form MLV. The MLV were downsized by extrusion followed by dialysis to remove external ammonium salt and form the gradient, finally drug was remote loaded into the gradient liposomes.

[3] = Doxorubicin accelerated chemical stability in ammonium-anion salt solutions; format: physicochemical; details: 4 hours at 70° C.; for Additional peaks: HPLC
Protocol: For accelerated stability the, chemical stability of doxorubicin in various ammonium-anions salts solutions was tested. Briefly, doxorubicin (2 mg/ml) was dissolved in various ammonium-anions salt solutions and incubated for 4 hours at the temperature of 70° C. At the end of 4 hours incubation doxorubicin concentration and the presence of doxorubicin degradation products were analyzed by HPLC using Agilent 1100 according to following protocol: Mobile phase: 50% MeOH, 40% phosphate buffer, pH=4, 10% Acetonitrile and 2% TEA Column: Phenomenex, Luna, C-18, Flow: 1 ml/min, detection wavelength 254 and 480 nm.

[4] = Topotecan remote loading encapsulation efficiency; format: physicochemical; details: 4 days storage at 5° C.
Protocol: Remote loading of topotecan were performed in the same way as the experiments described in Table 4 and Table 5 below for doxorubicin remote loading except that the drug concentration was determined from its absorbance at a wave length of 370 nm (which is the wavelength of maximum absorbance of topotecan).

[5] = Blood levels of doxorubicin in mice after single I.V. dose; format: in vivo, Balb/c mice; details: after 48 hours, FIG. 3
Protocol: At defined time-points (see Table 8 below, for composition of each formulation see Tables 5 and 6), mice of each group were euthanized with CO2 and terminal blood was withdrawn from the retro-orbital sinus and collected in labeled K3EDTA tubes. The blood samples were then immediately subjected to plasma separation procedure (4000 rpm for 10 minutes at 4° C.). The plasma, red blood cells fraction and whole blood of each mouse has been collected in labeled CryoTubes and stored at −80° C. pending analysis. Doxorubicin was extracted from the samples as follows. […] From the upper phase, 100 μl of the plasma diluted in A-IPA were diluted in 900 μl mobile phase for analysis and the contents of extracted doxorubicin was determined using fluorescence HPLC (as described in Gabizon et al. (1993) Pharm. Research 10(5):703-708).

[6] = Doxorubicin solubility in ammonium salt solutions; format: physicochemical
[7] = system: human OVCAR-3 ovarian adenocarcinoma cells; experiment: OVCAR-3 ovarian adenocarcinoma xenograft, anti-tumor efficacy; format: in vivo, athymic nude mice
Protocol: Female athymic nude mice were inoculated subcutaneously in the left flank with a suspension of 5×10^6 human OVCAR-3 ovarian adenocarcinoma cells (200 µL injection volume) and monitored for tumor growth. Animals were selected, randomized into four treatment groups (n=8 per group) with a balanced tumor size of ˜100 mm^3 according to the study design (Table 9) below.
(§1) G1 animals served as vehicle control and received 5 ml/kg saline. 2, G5 and G6 animals were treated with 8 mg/kg doxorubicin HCl, LC3-PLDMS-2 (PLMDS-2 are liposomes containing 250 mM ammonium methanesulfonate (MS) and remote loaded with doxorubicin (group 5 in the experiment), LC4_PLDMS-5 are liposomes containing 500 mM ammonium methanesulfonate (MS) and remote loaded with doxorubicin (group 6 in the experiment) (respectively, given intravenously (5 mL/kg dose volume) once weekly for 2 consecutive weeks. Body weight, general clinical observations and tumor size were monitored throughout the experimental period. Experimental groups were terminated when median tumor volume reached 2500 mm^3. Endpoint parameters such as body weight change, % ILS, Median tumor volume, TGI, % T/C, RTV, LCK, Tumor growth delay, TVDT and TVDTD were calculated. Tumor volumes were measured twice weekly using a digital vernier caliper recording length (L=longest axis) and width (W=shortest axis), and volume was calculated in mm^3 as L×W^2/2. Groups reaching a median tumor volume of 2500 mm^3 were terminated and the date of termination was used as the date of death for the purpose of survival calculations. The following parameters were calculated: median survival time (MST), percentage increased life span (% ILS) and median tumor volume (TV). Other measured, including median TV change; median tumor growth inhibition (TGI); % T/C; relative tumor volume (RTV); log cell kill (LCK); tumor growth delay; tumor volume doubling time (TVDT); and tumor volume doubling time delay (TVDTC), were derived from the median tumor volume measurements. Tumor growth regression was also plotted.
(§2) Mice bearing growing tumor were selected and randomized into 4 groups containing 8 animals in each based on a mean tumor size of ˜100 mm3. G1 animals served as vehicle control and received 5 ml/kg saline whereas G2, G5 and G6 animals received Doxorubicin HCl, LC3-PLDMS-2 or LC4-PLDMS-5, respectively, at a dose of 8 mg/kg. All the animals were dosed intravenously at the dose volume of 5 ml/kg weekly once for two weeks. Body weight, general clinical observations and tumor volume parameters were recorded during the experimental period. Groups reaching median tumor volume of 2500 mm^3 were terminated.
For preparation and administration of reference and test item, all the test items are ready to use formulations. The strength of test formulation is 2 mg/ml of doxorubicin HCl in sterile 5 ml vial. 2 ml of reference or test item formulation (i.e. Doxorubicin HCl, LC3-PLDMS-2 and LC4-PLDMS-5) was diluted to 0.5 ml normal saline to achieve 1.6 mg/ml. 100 μL of final test formulation was injected intravenously to 20 g of mouse to achieve the 8 mg/kg dose. Group G1 animals received normal saline at the dose volume of 5 ml/kg.

[8] = OVCAR-3 xenograft study, tolerability (body weight, clinical signs); format: in vivo
Protocol: as §1, §2
The body weight of each mouse was recorded at the time of randomization, on alternate days during dosing period and post-dosing period until the end of the study.

[9] = counter anion 500 mM, salt pH 5.53
[10] = counter anion 500 mM, salt pH 6.2
[11] = counter anion 250 mM, salt pH 5.5
[12] = counter anion 500 mM, salt pH 5.5
[13] = 8 mg/kg i.v. once weekly for 2 weeks

O=C(O)[C@H]1OC(O)[C@H](O)[C@@H](O)[C@@H]1O (mixture of isomers) [Glucuronate]
Log P (log D at pH=5.5) value quoted in text [1]: < −2.3
LogD (acid)- at pH = 5.5 [1]: −5.38

O=S(=O)(O)CCCO [3-HydroxyPropane-1-Sulfonate]
LogP (acid) [1]: −2.59
LogD (acid)- at pH = 5.5 [1]: −5.39

Ethanesulfonate
LogP (acid) [1]: −1.577
LogD (acid)- at pH = 5.5 [1]: −4.85

Methanesulfonate
Encapsulation % Short stability 5° C. After one week [2, 9]: 110.66%
Encapsulation % (T0) [2, 9]: 106.32%
Assay loss (%) at 254 nm [3]: <15%
Additional peaks [3]: no
LogP (acid) [1]: −2.087
LogD (acid)- at pH = 5.5 [1]: −5.39

Lactate
Encapsulation % Short stability 5° C. After one week [2, 10]: 48.68%
Encapsulation % (T0) ([2]; counter anion 250 mM, salt pH 4.5): 18.37%
Encapsulation % (T0) [2, 11]: 23.42%
Encapsulation % (T0) [2, 10]: 101.95%

Maleate
Encapsulation % (T0) [2, 11]: 36.23%
Encapsulation % (T0) [2, 12]: 22.55%

CC(=O)C(=O)O [Pyruvate]
Encapsulation % Short stability 5° C. After one week ([2]; counter anion 500 mM, salt pH 6): 15.38%
LogP (acid) [1]: −1.24
LogD (acid)- at pH = 5.5 [1]: −4.04

Tartarate
LogP (acid) [1]: −1.081

O=C(O)[C@H](O)[C@@H](O)[C@H](O)[C@H](O)CO [Gluconate]
LogP (acid) [1]: −2.116
LogD (acid)- at pH = 5.5 [1]: −4.83

O=C(O)CO [Glycolate]
Encapsulation % (T0) [2, 12]: 41.19%
LogP (acid) [1]: −1.204

CC[C@@]1(O)C(=O)OCc2c1cc1n(c2=O)Cc2cc3c(CN(C)C)c(O)ccc3nc2-1 [topotecan]
encapsulation efficiency (loading) ([4]; topotecan HCl 1.3 mg/ml, ammonium 350 mM, methanesulfonate 350 mM counter anion): 94%
encapsulation efficiency (loading) ([4]; topotecan HCl, 500 mM ammonium, 250 mM sulfate counter anion): 93%

O=S(=O)(O)O [Sulfate]
Assay loss (%) at 254 nm [3]: <15%
Additional peaks [3]: no

COc1cccc2c1C(=O)c1c(O)c3c(c(O)c1C2=O)C[C@@](O)(C(=O)CO)C[C@@H]3O[C@H]1C[C@H](N)[C@H](O)[C@H](C)O1 [Doxorubicin HCl]
drug levels in blood in comparison to Doxil® [5]: below limit of detection
higher solubility of the methanesulfonate form versus ammonium sulfate [6]: at least 35 fold
solubility of doxorubicin in 250 mM ammonium alkyl or aryl sulfonate relative to 250 mM ammonium sulfate [6]: approximately 30 fold
precipitation in the presence of alkyl or aryl sulfonate ions ([6]; 70 mM): did not precipitate
concentration at which doxorubicin precipitates ([6]; in the presence of sulfate ions (ammonium sulfate)): less than 2 mM
% Increased Life Span (% ILS) [7, 13]: 21.2%
Mean TVDT [7, 13]: 7 days
Median Survival Time (MST) [7, 13]: 63
median life span [7, 13]: 63 days
Log Cell Kill Value ([7]; 8 mg/kg i.v. once weekly for 2 weeks, derived from median tumor volume): 0.40
Median Tumor Volume ([7]; Day 22): 110.9 mm^3
Median Tumor Volume ([7]; Day 24): 128.6 mm^3
Median Tumor Volume ([7]; Day 26): 145.8 mm^3
Median Tumor Volume ([7]; Day 28): 173.8 mm^3
Median Tumor Volume ([7]; Day 30): 194.7 mm^3
Median Tumor Volume ([7]; Day 32): 215.5 mm^3
Median Tumor Volume ([7]; Day 34): 252.9 mm^3
Median Tumor Volume ([7]; Day 36): 311.1 mm^3
Median Tumor Volume ([7]; Day 38): 379.4 mm^3
Median Tumor Volume ([7]; Day 40): 453.8 mm^3
Median Tumor Volume ([7]; Day 42): 550.9 mm^3
Median Tumor Volume ([7]; Day 44): 673.4 mm^3
Median Tumor Volume ([7]; Day 46): 802.4 mm^3
Median Tumor Volume ([7]; Day 48): 1006.1 mm^3
Median Tumor Volume ([7]; Day 50): 1218.8 mm^3
Median Tumor Volume ([7]; Day 52): 1430.3 mm^3
Median Tumor Volume ([7]; Day 56): 1799.5 mm^3
Median Tumor Volume ([7]; Day 59): 2192.6 mm^3
Median Tumor Volume ([7]; Day 63): 2699.3 mm^3
Mean Body Weight ([8]; Day 22): 22.4 g
Mean Percentage Change in Body Weight ([8]; Day 22): 0.0%
Mean Body Weight ([8]; Day 24): 22.1 g
Mean Percentage Change in Body Weight ([8]; Day 24): −1.6%
Mean Body Weight ([8]; Day 26): 21.6 g
Mean Percentage Change in Body Weight ([8]; Day 26): −3.7%
Mean Body Weight ([8]; Day 28): 21.8 g
Mean Percentage Change in Body Weight ([8]; Day 28): −2.9%
Mean Body Weight ([8]; Day 30): 21.5 g
Mean Percentage Change in Body Weight ([8]; Day 30): −4.1%
Mean Body Weight ([8]; Day 32): 21.4 g
Mean Percentage Change in Body Weight ([8]; Day 32): −4.7%
Mean Body Weight ([8]; Day 34): 21.1 g
Mean Percentage Change in Body Weight ([8]; Day 34): −6.1%
Mean Body Weight ([8]; Day 36): 20.9 g
Mean Percentage Change in Body Weight ([8]; Day 36): −6.6%
Mean Body Weight ([8]; Day 38): 20.8 g
Mean Percentage Change in Body Weight ([8]; Day 38): −7.4%
Mean Body Weight ([8]; Day 40): 20.6 g
Mean Percentage Change in Body Weight ([8]; Day 40): −8.0%
Mean Body Weight ([8]; Day 42): 20.6 g
Mean Percentage Change in Body Weight ([8]; Day 42): −8.1%
Mean Body Weight ([8]; Day 44): 20.5 g
Mean Percentage Change in Body Weight ([8]; Day 44): −8.5%
Mean Body Weight ([8]; Day 46): 20.5* g
Mean Percentage Change in Body Weight ([8]; Day 46): −8.6%
Mean Body Weight ([8]; Day 48): 20.8* g
Mean Percentage Change in Body Weight ([8]; Day 48): −7.3%
Mean Body Weight ([8]; Day 50): 20.9* g
Mean Percentage Change in Body Weight ([8]; Day 50): −6.9%
Mean Body Weight ([8]; Day 52): 21.1* g
Mean Percentage Change in Body Weight ([8]; Day 52): −6.0%
Mean Body Weight ([8]; Day 56): 21.4 g
Mean Percentage Change in Body Weight ([8]; Day 56): −4.7%
Mean Body Weight ([8]; Day 59): 21.8 g
Mean Percentage Change in Body Weight ([8]; Day 59): −2.9%
Mean Body Weight ([8]; Day 63): 22.1 g
Mean Percentage Change in Body Weight ([8]; Day 63): −1.3%
maximum body weight loss ([8]; G2 on day 46, other groups on day 32 / 34 as printed): −8.6%
body weight gain by the end of experiment ([8]; mouse, in vivo): no body weight gain was observed

Source: US20190374647A1, “STABLE LIPOSOMES FOR DRUG DELIVERY” (YISSUM RESEARCH DEVELOPMENT COMPANY OF THE HEBREW …, priority 2012, published 2019)
